In patent US20190060261A1, “ACTIVE COMBINATIONS OF PERILLIC ACID AND ACTIVITY ENHANCING SUBSTANCES” (B.R.A.I.N BIOTECHNOLOGY RESEARCH AND INFORMATION NETWORK AG, priority 2016, published 2019):
Converted amounts (≈) assume the structure as drawn.

Columns and labels:
[1] = system: Candida albicans ATCC®10231; test: Conservation efficacy test according to DIN EN ISO 11930 in cosmetic formulation; format: cell-based; settings: cosmetic formulation (oil-water-emulsion), day 0 to day 28
Description: (§1) The composition of the formulations was in general as follows (ingredient amounts according to the FDA-code):
(§2) In order to confirm the activity against Gram-positive and Gram-negative bacteria, yeasts and moulds, conservation efficacy tests were performed according to DIN EN ISO 11930. The following classical contamination germs were examined: Escherichia coli (Ec in FIGS. 1 and 2) ATCC®8739, Pseudomonas aeruginosa (Pa in FIGS. 1 and 2) ATCC®9027, Stapyhlococcus aureus (Sa in FIGS. 1 and 2) ATCC®6538, Candida albicans (Ca in FIGS. 1 and 2) ATCC®10231 and Aspergillus brasiliensis (Ab in FIGS. 1 and 2) ATCC®16404. Media composition, incubation conditions and dilution procedures were all conducted according to the guidelines.
(§3) Data are presented as line graphs. […] The tested contamination germs are identified by different symbols as indicated in the diagrams with the following abbreviations: […]

[2] = system: Pseudomonas aeruginosa ATCC®9027; test: as above; format: cell-based; settings: cosmetic formulation (oil-water-emulsion), day 0 to day 28
Description: as §1, §2, §3

[3] = system: Pseudomonas aeruginosa; test: Combination of substances with perillic acid: reduction of the MIC of perillic acid; format: cell-based; settings: test compound combined with perillic acid; experiments as in Example 1
Description: (§4) All experiments were done in 96-well plates in a final volume of 200 μL. Test solutions of the investigated compounds were prepared in 25 mM buffered water. The procedure was conducted as following: 4 μL of the particular stock solution were mixed with 196 μL culture medium containing a defined inoculum of the respective target strain. Sterile controls (not inoculated) and growth controls (buffer instead of compound added) were performed. All compound concentrations were tested in triplicate for several times. The following contamination germs were examined: Escherichia coli ATCC 8739, Pseudomonas aeruginosa ATCC 9027, Stapyhlococcus aureus ATCC®6538, Bacillus subtilis subsp. spizizenii ATCC®6633, Candida albicans ATCC®10231 and Aspergillus brasiliensis ATCC®16404. The strains were cultivated either in Mueller-Hinton II Bouillon (Escherichia coli, Pseudomonas aeruginosa, Staphylococcus aureus), in yeast peptone dextrose (Bacillus subtilis, Candida albicans) or in potato dextrose medium (Aspergillus brasiliensis). All culture media were buffered with 25 mM MES-buffer. For compound testing, the plates were incubated at 37° C. for Escherichia coli, Pseudomonas aeruginosa and Staphylococcus aureus, at 28° C. for Bacillus subtilis and Candida albicans, and at 25° C. for Aspergillus brasiliensis. Plates were evaluated after 24 h and 72 h, respectively. The minimal inhibitory concentration (MIC) is defined as the concentration where no microbial growth was observed after 24 h and 72 h incubation at the specified temperature.
(§5) Activity of perillic acid was comparably low against Gram-negative bacteria. It was thus tested whether the respective MIC could be reduced by combination of perillic acid with selected substances.
(§6) Experiments were performed as described for Example 1 above. A reduction factor was determined, expressing the reduction of the MIC of perillic acid that was achievable by combination with the combination partner. For example, a reduction factor of 2 means that the MIC of perillic acid was reduced by a factor of 2 by combination of perillic acid with the respective activity enhancing substance.

[4] = system: Escherichia coli; test: as above; format: cell-based; settings: test compound combined with perillic acid; experiments as in Example 1
Description: as §4, §5, §6

[5] = system: Escherichia coli ATCC 8739; test: Minimal inhibition concentration (MIC), microdilution method adapted from DIN EN ISO 20776-1:2006; format: cell-based; settings: Escherichia coli, ATCC8739; Mueller-Hinton II Bouillon, 25 mM MES-buffer, 37° C., no growth after 24 h and 72 h; read-out: MIC [A to D] Escherichia coli
Excerpt: (§7) The antimicrobial activity of different substances was examined and compared to perillic acid in vitro using the microdilution method adapted from DIN EN ISO 20776-1:2006. Besides perillic acid and its sodium salt, other organic acids like levulinic acid, p-anisic acid, benzoic acid and sorbic acid as well as alkane-1,2-diols such as hexane-1,2-diol, octane-1,2-diol and decane-1,2-diol were studied. Additionally, the commonly used preservatives 2-phenoxyethanol, 2-phenylethanol and benzyl alcohol were investigated.
as §4
(§8) MIC-values are given according to the following letter code.

[6] = system: Pseudomonas aeruginosa ATCC 9027; test: Minimal inhibition concentration (MIC), microdilution method; format: cell-based; settings: Pseudomonas aeruginosa, ATCC9027; Mueller-Hinton II Bouillon, 25 mM MES-buffer, 37° C., no growth after 24 h and 72 h; read-out: MIC [A to D] Pseudomonas aeruginosa
Excerpt: as §7, §4, §8

[7] = system: Candida albicans ATCC®10231; test: as above; format: cell-based; settings: yeast peptone dextrose, 25 mM MES-buffer, 28° C., no growth after 24 h and 72 h
Excerpt: as §7, §4, §8

[8] = system: Bacillus subtilis subsp. spizizenii ATCC®6633; test: as above; format: cell-based; settings: Bacillus subtilis, ATCC6633; yeast peptone dextrose, 25 mM MES-buffer, 28° C., no growth after 24 h and 72 h; read-out: MIC [A to D] Bacillus subtilis
Excerpt: as §7, §4, §8

[9] = system: Aspergillus brasiliensis ATCC®16404; test: as above; format: cell-based; settings: Aspergillus brasiliensis, ATCC16404; potato dextrose medium, 25 mM MES-buffer, 25° C., no growth after 24 h and 72 h; read-out: MIC [A to D] Aspergillus brasiliensis
Excerpt: as §7, §4, §8

[10] = system: Stapyhlococcus aureus ATCC®6538; test: as above; format: cell-based, Staphylococcus aureus; settings: Mueller-Hinton II Bouillon, 25 mM MES-buffer, 37° C., no growth after 24 h and 72 h
Excerpt: as §7, §4, §8

[11] = system: Escherichia coli ATCC®8739; test: Conservation efficacy test according to DIN EN ISO 11930 in cosmetic formulation; format: cell-based; settings: cosmetic formulation (oil-water-emulsion), day 0 to day 28
Description: as §1, §2, §3

[12] = system: Aspergillus brasiliensis ATCC®16404; test: as above; format: cell-based; settings: cosmetic formulation (oil-water-emulsion), day 0 to day 28
Description: as §1, §2, §3

[13] = system: Stapyhlococcus aureus ATCC®6538; test: as above; format: cell-based, Staphylococcus aureus; settings: cosmetic formulation (oil-water-emulsion), day 0 to day 28
Description: as §1, §2, §3

Reduction factor (reduction of the MIC of perillic acid by combination with the test compound) Pseudomonas aeruginosa [3] | Reduction factor (reduction of the MIC of perillic acid by combination with the test compound) Escherichia coli [4] | MIC [5] | MIC [6] | MIC [A to D] Candida albicans [7] | MIC [8] | MIC [9] | MIC [A to D] Staphylococcus aureus [10] | SMILES | criteria for an adequate conservation against C. albicans [1] | criteria for an adequate conservation against P. aeruginosa [2] | criteria for an adequate conservation against E. coli [11] | criteria for an adequate conservation against A. brasiliensis [12] | criteria for an adequate conservation against S. aureus [13]
2000 | 2000 | 5000 to 10000 µg/mL (≈ 34.2 to 68.4 mM) | 1000 to 5000 µg/mL (≈ 6.84 to 34.2 mM) | A (MIC>1% (w/v)) | 1000 to 5000 µg/mL (≈ 6.84 to 34.2 mM) | 1000 to 5000 µg/mL (≈ 6.84 to 34.2 mM) | A (MIC>1% (w/v)) | CCCCCCC(O)CO (centres unmarked) [Octane-1,2-diol] | does not fulfill the criteria | does not fulfill the criteria | – | – | –
– | – | – | – | – | – | – | – | C=C(C)[C@@H]1CC=C(C(=O)O)CC1 [Perillic acid] | fulfills the criteria | – | fulfills the criteria | fulfills the criteria | fulfills the criteria
